The term viability, T/C denotes the result in the treated group divided by that in the control group, in per cent. As a reminder, the IC50 is the concentration that gives 50% inhibition.

SMILES strings stand for the structures. Values joined by “and” are separate entries in the source; they are usually repeats but may differ in a detail not shown here. Identical values can stand only once.

The subject of this assay is NCI-H1341 complex spheroids, percent test/control. As to the kind of experiment: Anticancer human tumor NCI-H1341 cell line growth inhibition [AhR].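 On all read-outs here: spheroids exposed to agents for seven days before readout.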 To be noted: for viability, T/C: stronger effect = lower value. Put shortly:
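Complex tumor spheroids co-cultured with HUVEC and human MSC stroma; AhR antagonists tested in combination with standard-of-care and investigational agents. Top concentration at or near clinical Cmax (else 10 microM), half-log dilutions; growth expressed as percent test/control.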

[1] abbreviates: curve of first compound, second compound 0.1 µM.
The mark [2] stands for this setting: curve of first compound, second compound 0.316 µM.
Where [3] appears, read: curve of first compound, second compound 1 µM.
Where [4] appears, read: curve of first compound, second compound 3.16 µM.
The mark [5] stands for this setting: curve of first compound, second compound 10 µM.
Setting [6] is: second compound 0.1 µM, first compound 0.0316 µM.
Setting [7] is: second compound 0.1 µM, first compound 0.1 µM.
The mark [8] stands for this setting: second compound 0.316 µM, first compound 0.0316 µM.
Where [9] appears, read: second compound 0.316 µM, first compound 0.1 µM.
Where [10] appears, read: second compound 1 µM, first compound 0.0316 µM.
Where [11] appears, read: second compound 1 µM, first compound 0.1 µM.
Where [12] appears, read: second compound 3.16 µM, first compound 0.0316 µM.
The mark [13] stands for this setting: second compound 3.16 µM, first compound 0.1 µM.
The mark [14] stands for this setting: second compound 10 µM, first compound 0.0316 µM.
[15] abbreviates: second compound 10 µM, first compound 0.1 µM.
Setting [16] is: second compound 0.1 µM, first compound 0.000316 µM.
[17] abbreviates: second compound 0.1 µM, first compound 0.001 µM.
Where [18] appears, read: second compound 0.1 µM, first compound 0.00316 µM.
Setting [19] is: second compound 0.1 µM, first compound 0.01 µM.
[20] abbreviates: second compound 0.316 µM, first compound 0.000316 µM.
Where [21] appears, read: second compound 0.316 µM, first compound 0.001 µM.
Setting [22] is: second compound 0.316 µM, first compound 0.00316 µM.
[23] abbreviates: second compound 0.316 µM, first compound 0.01 µM.
[24] abbreviates: second compound 1 µM, first compound 0.000316 µM.
Where [25] appears, read: second compound 1 µM, first compound 0.001 µM.
The mark [26] stands for this setting: second compound 1 µM, first compound 0.00316 µM.
The mark [27] stands for this setting: second compound 1 µM, first compound 0.01 µM.
Where [28] appears, read: second compound 3.16 µM, first compound 0.000316 µM.
Setting [29] is: second compound 3.16 µM, first compound 0.001 µM.
[30] abbreviates: second compound 3.16 µM, first compound 0.00316 µM.
Setting [31] is: second compound 3.16 µM, first compound 0.01 µM.
Setting [32] is: second compound 10 µM, first compound 0.000316 µM.
Where [33] appears, read: second compound 10 µM, first compound 0.001 µM.
The mark [34] stands for this setting: second compound 10 µM, first compound 0.00316 µM.
The mark [35] stands for this setting: second compound 10 µM, first compound 0.01 µM.

With `Cn1ncnc1C1c2n[nH]c(=O)c3cc(F)cc(c23)NC1c1ccc(F)cc1` (stereo not drawn), the viability, T/C is, setting by setting: (compound 0.000316 µM) 125% and 98% and 95.9%; (compound 0.001 µM) 88.8% and 101% and 99%; (compound 0.00316 µM) 97.2% and 99.4% and 99.8%; (compound 0.01 µM) 96.9% and 109% and 95.9%; (compound 0.0316 µM) 85.5% and 74% and 100%; (compound 0.1 µM) 89.4% and 76.9% and 71.7%. For the same molecule, the IC50 (curve of compound) was more than 0.1 µM.

`CC[C@@]1(O)C(=O)OCc2c1cc1n(c2=O)Cc2cc3c(CN(C)C)c(O)ccc3nc2-1`: the viability, T/C is, setting by setting: (compound 0.000316 µM) 89.2% and 92.2% and 98.9%; (compound 0.001 µM) 94.4% and 86.7% and 107%; (compound 0.00316 µM) 89.6% and 91.8% and 112%; (compound 0.01 µM) 80.9% and 79.7% and 87.2%; (compound 0.0316 µM) 48.4% and 65.8% and 57.3%; (compound 0.1 µM) 35.3% and 35% and 46.5%. Also, the IC50 (curve of compound) was 0.0299 µM and 0.0568 µM and 0.0713 µM.

For the molecule `O=C(c1cc(Cc2n[nH]c(=O)c3ccccc23)ccc1F)N1CCN(C(=O)C2CC2)CC1` + Cc1cncc(-c2nc(NCCc3c[nH]c4ccccc34)c3ncn(C(C)C)c3n2)c1, the IC50 under setting [1] was more than 10 µM; the 50% inhibitory concentration (IC50) under setting [2] was more than 10 µM; the IC50 under setting [3] was more than 10 µM; the concentration for half-maximal inhibition (IC50) under setting [4] was more than 10 µM; the IC50 under setting [5] was less than 0.0316 µM. Moreover, the viability, T/C was 87.6% under setting [6]; 80.9% under setting [7]; 82.1% (second compound 0.1 µM, first compound 0.316 µM); 85.5% (second compound 0.1 µM, first compound 1 µM); 76.7% (second compound 0.1 µM, first compound 3.16 µM); 61.7% (second compound 0.1 µM, first compound 10 µM). For the same molecule, the viability, T/C reads like this: under setting [8], 72.7%; under setting [9], 91.4%; (second compound 0.316 µM, first compound 0.316 µM) 64.4%; (second compound 0.316 µM, first compound 1 µM) 77.5%; (second compound 0.316 µM, first compound 3.16 µM) 74.1%; (second compound 0.316 µM, first compound 10 µM) 63%. Further, the viability, T/C under setting [10] was 88.3%; the viability, T/C under setting [11] was 61.2%; the viability, T/C (second compound 1 µM, first compound 0.316 µM) is 70.8%; the viability, T/C (second compound 1 µM, first compound 1 µM) is 79.3%; the viability, T/C (second compound 1 µM, first compound 3.16 µM) was 71%; the viability, T/C (second compound 1 µM, first compound 10 µM) was 62.7%. In addition, the viability, T/C was 57.5% under setting [12]; 61.1% under setting [13]; 60.6% (second compound 3.16 µM, first compound 0.316 µM); 62% (second compound 3.16 µM, first compound 1 µM); 68.1% (second compound 3.16 µM, first compound 3.16 µM); 51.4% (second compound 3.16 µM, first compound 10 µM). Also, the viability, T/C was 19.4% under setting [14]; 19.5% under setting [15]; 19.6% (second compound 10 µM, first compound 0.316 µM); 21.3% (second compound 10 µM, first compound 1 µM); 21.2% (second compound 10 µM, first compound 3.16 µM); 22.1% (second compound 10 µM, first compound 10 µM).

With `CC[C@@]1(O)C(=O)OCc2c1cc1n(c2=O)Cc2cc3c(CN(C)C)c(O)ccc3nc2-1` + Cc1ccccc1N=Nc1ccc(NC(=O)c2ccnn2C)c(C)c1, the IC50 by setting is: under setting [1], 0.0591 µM; under setting [2], more than 0.1 µM; under setting [3], 0.0671 µM; under setting [4], more than 0.1 µM; under setting [5], 0.0352 µM. In addition, the viability, T/C reads like this: under setting [16], 103%; under setting [17], 99.8%; under setting [18], 91.1%; under setting [19], 80.2%; under setting [6], 51.8%; under setting [7], 47.5%. The viability, T/C reads like this: under setting [20], 99.5%; under setting [21], 83.4%; under setting [22], 97.7%; under setting [23], 74.6%; under setting [8], 49.9%; under setting [9], 52.9%. Also, the viability, T/C is 97.4% under setting [24]; 83.5% under setting [25]; 82.3% under setting [26]; 70.2% under setting [27]; 57.2% under setting [10]; 45.8% under setting [11]. Further, the viability, T/C under setting [28] was 76.6%; the viability, T/C under setting [29] was 94.7%; the viability, T/C under setting [30] is 65.5%; the viability, T/C under setting [31] was 64.2%; the viability, T/C under setting [12] is 45.2%; the viability, T/C under setting [13] was 52.9%. Also, the viability, T/C runs as follows: under setting [32], 46.4%; under setting [33], 58%; under setting [34], 51.6%; under setting [35], 49.8%; under setting [14], 49.6%; under setting [15], 48.6%.

With `Cn1ncnc1C1c2n[nH]c(=O)c3cc(F)cc(c23)NC1c1ccc(F)cc1` (stereo not drawn) + CC(CO)NC(=O)c1cc(-c2ccc(Cl)cc2)nn(-c2cnn(C)c2)c1=O, the IC50 by setting is: under setting [1], more than 0.1 µM; under setting [2], more than 0.1 µM; under setting [3], more than 0.1 µM; under setting [4], more than 0.1 µM; under setting [5], more than 0.1 µM. Also, the viability, T/C is, setting by setting: under setting [16], 79.2%; under setting [17], 83.4%; under setting [18], 84%; under setting [19], 73.5%; under setting [6], 83.2%; under setting [7], 77.6%. Besides, the viability, T/C is, setting by setting: under setting [20], 85%; under setting [21], 95.7%; under setting [22], 88.8%; under setting [23], 76.9%; under setting [8], 91.8%; under setting [9], 72.3%. For the same molecule, the viability, T/C under setting [24] was 72.5%; the viability, T/C under setting [25] was 95.4%; the viability, T/C under setting [26] is 77.5%; the viability, T/C under setting [27] is 85.7%; the viability, T/C under setting [10] was 80.5%; the viability, T/C under setting [11] was 73.9%. Besides, the viability, T/C by setting is: under setting [28], 87.5%; under setting [29], 93.8%; under setting [30], 77.1%; under setting [31], 62.4%; under setting [12], 76.2%; under setting [13], 65.9%. In addition, the viability, T/C under setting [32] is 72.4%; the viability, T/C under setting [33] is 84.2%; the viability, T/C under setting [34] is 81%; the viability, T/C under setting [35] was 65.2%; the viability, T/C under setting [14] is 66.1%; the viability, T/C under setting [15] is 69.2%.

On to `COc1cc(Nc2ncc3c(n2)-c2ccc(Cl)cc2C(c2c(F)cccc2OC)=NC3)ccc1C(=O)O`, for which the viability, T/C is 33% and 48.4% and 43.1% (compound 0.0316 µM); 43.8% and 51.7% and 43% (compound 0.1 µM); 37% and 43.2% and 50.4% (compound 0.316 µM); 29.6% and 37.5% and 36.1% (compound 1 µM); 27.7% and 28% and 29.3% (compound 3.16 µM); 22.2% and 26.8% and 26.4% (compound 10 µM). Besides, the IC50 (curve of compound) is less than 0.0316 µM.

Regarding `Nc1ncn(C2CC(O)C(CO)S2)c(=O)n1` (stereo not drawn), the viability, T/C is, setting by setting: (compound 0.000949 µM) 109% and 96.2% and 95%; (compound 0.003 µM) 90.5% and 73.4% and 100%; (compound 0.00949 µM) 115% and 102% and 104%; (compound 0.03 µM) 105% and 80.6% and 104%; (compound 0.0949 µM) 89.2% and 68.3% and 79%; (compound 0.3 µM) 68.2% and 49.5% and 62%. Besides, the 50% inhibitory concentration (IC50) (curve of compound) is > 0.3 µM and 0.294 µM.

(Values after PubChem BioAssay AID1919014 (Molecular Pharmacology Branch, DTP, NCI, 2023).)
